One experiment has as its target T1, Or56a (Drosophila melanogaster, UniProt Q9V8Y7).
T1 construct: native receptor in ab4B olfactory sensory neurons of excised open antenna, with endogenous Orco; GCaMP6f calcium reporter; no heterologous expression; with Odorant receptor coreceptor
T1 sequence (Q9V8Y7 1-419): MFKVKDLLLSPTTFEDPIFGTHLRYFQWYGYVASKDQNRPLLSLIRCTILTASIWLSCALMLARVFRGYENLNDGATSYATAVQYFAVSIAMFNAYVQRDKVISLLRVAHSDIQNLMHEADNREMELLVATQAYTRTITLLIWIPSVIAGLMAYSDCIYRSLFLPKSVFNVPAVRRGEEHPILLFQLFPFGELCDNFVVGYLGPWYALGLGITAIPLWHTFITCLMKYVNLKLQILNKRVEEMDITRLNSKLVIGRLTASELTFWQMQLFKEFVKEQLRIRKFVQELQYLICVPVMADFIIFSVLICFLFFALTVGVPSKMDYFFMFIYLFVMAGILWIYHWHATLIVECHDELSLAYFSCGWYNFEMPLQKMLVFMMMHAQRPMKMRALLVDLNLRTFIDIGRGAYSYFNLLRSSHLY
T1 sequence (Q9VNB5 1-486 partner): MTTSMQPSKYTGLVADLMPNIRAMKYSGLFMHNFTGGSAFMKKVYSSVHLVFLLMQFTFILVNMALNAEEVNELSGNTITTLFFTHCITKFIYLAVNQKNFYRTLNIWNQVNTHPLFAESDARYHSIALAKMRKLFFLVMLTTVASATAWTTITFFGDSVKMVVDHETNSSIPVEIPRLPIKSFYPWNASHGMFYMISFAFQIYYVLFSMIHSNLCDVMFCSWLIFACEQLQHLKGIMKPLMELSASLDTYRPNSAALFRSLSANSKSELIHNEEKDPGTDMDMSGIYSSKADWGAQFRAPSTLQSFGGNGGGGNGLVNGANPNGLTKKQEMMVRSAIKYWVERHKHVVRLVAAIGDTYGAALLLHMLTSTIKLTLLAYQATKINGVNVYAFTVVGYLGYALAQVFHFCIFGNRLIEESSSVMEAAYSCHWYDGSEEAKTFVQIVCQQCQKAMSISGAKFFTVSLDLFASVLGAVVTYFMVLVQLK
The experiment in a line: GCaMP6f calcium imaging of native OSN somata, open antenna. The following applies: agonist; Drosophila Ringer pH 7.3; Hill coefficient 0.6; concentration as applied; n = 9.

The target of the next experiment is T2, Or22a (Drosophila melanogaster, UniProt P81909).
T2 construct: native receptor in ab3A olfactory sensory neurons of excised open antenna, with endogenous Orco; GCaMP6f calcium reporter; no heterologous expression; with Odorant receptor coreceptor
T2 sequence (P81909 1-397): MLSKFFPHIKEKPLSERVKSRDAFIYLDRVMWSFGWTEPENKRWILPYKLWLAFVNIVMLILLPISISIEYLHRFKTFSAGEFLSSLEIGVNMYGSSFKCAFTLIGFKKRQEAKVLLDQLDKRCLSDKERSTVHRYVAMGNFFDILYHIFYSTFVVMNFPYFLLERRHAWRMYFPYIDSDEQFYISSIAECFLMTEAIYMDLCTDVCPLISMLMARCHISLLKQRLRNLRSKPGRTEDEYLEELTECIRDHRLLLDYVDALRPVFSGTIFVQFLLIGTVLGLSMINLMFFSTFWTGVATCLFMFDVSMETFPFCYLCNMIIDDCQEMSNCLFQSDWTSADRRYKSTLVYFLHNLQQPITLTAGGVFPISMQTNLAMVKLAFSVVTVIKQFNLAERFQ
T2 sequence (Q9VNB5 1-486 partner): T1 sequence (Q9VNB5 1-486 partner)
Described as above. The following applies: agonist; Drosophila Ringer pH 7.3; Hill coefficient 0.8; concentration as applied; n = 12.

As usually defined, the EC50 is the concentration needed to bring the measured effect to its halfway point. Turning to `CC1CCCC2(C)CCCCC12O` (racemic) [geosmin], on Or56a, the EC50 was 25 nM.
As for `CCCCCC(=O)OCC` [ethyl hexanoate], the EC50 on Or22a was determined as 1500 nM.

The record behind these values is paper PMC11241008, “Response Plasticity of Drosophila Olfactory Sensory Neurons” (International Journal of Molecular Sciences, 2024).
